Reference: patent publication US4365063A, “Antihypertensive agents” (American Home Products Corporation, priority 1981, dated 1982)

Key:
rabbit aortic strips = assay: Ca+2 antagonism: relaxation of potassium-contracted rabbit aortic strips; format: cell-based; settings: Oryctolagus cuniculus, strips contracted with 100 millimoles potassium ion, read-out: percent relaxation (P.R.); for inhibition at 10 µM: 10^-5 M bath concentration; for inhibition at 1 µM: 10^-6 M bath concentration
Procedure: After a stable active tension has developed in the strip, as measured by Statham UC-2 force transducers and recorded on an eight channel Beckman Dynograph Polygraphic Recorder, an amount of the antagonist was added to the organ bath to make a 10^-5 molar concentration of antagonist. The depressant effect, expressed as percent relaxation, was taken from the mean of at least two experiments. […] A Ca^+2 antagonist producing a 20 percent relaxation of aortic tissue in this test procedure at a 10^-5 molar bath concentration of the antagonist, generally produced a significant reduction in blood pressure when a sufficient amount is given to the spontaneously hypertensive rat.
(§1) The following examples illustrate the preparation of a representative number of compounds of this invention. After each example, the Ca^+2 antagonist activity of the compound is presented in terms of percent relaxation (P.R.) at the stated concentration. Similarly, the antihypertensive activity is reported in terms of millimeters mercury (mmHg) blood pressure (B.P.) reduction at the stated time post oral dosing with the reported amount of compound.

[1] = system: spontaneously hypertensive rats; assay: Systolic blood pressure lowering in spontaneously hypertensive rats; format: in vivo, rat
Procedure: The in vivo blood pressure lowering ability of the compounds of this invention was established by measuring the systolic pressure of spontaneously hypertensive rats with a Decker Caudal Plethysmograph or similar sensor device. The compound being tested is administered to groups of four rats and their blood pressure is read prior to compound administration and at 1.5 and 4 hours after compound administration. Depending upon the behavior of the compound being tested, the schedule of blood pressure readings and route of administration is modified. Initially the compounds are administered orally but where compound solubility is a factor, the compounds may be administered parenterally (i.e. i.p., i.m., s.c., i.v., etc.) as desired. The compounds of this invention were initially administered orally at a standard testing dose of 50 mg/kg., and where appropriate, smaller doses were administered to obtain a potency profile.
as §1

SMILES | inhibition at 10 µM (rabbit aortic strips) [%] | inhibition at 1 µM (rabbit aortic strips) [%] | blood pressure (B.P.) reduction ([1]; 2.5 mg/kg oral, at 1.5 hours) [mmHg] | blood pressure (B.P.) reduction ([1]; 2.5 mg/kg oral, at 4 hours) [mmHg] | blood pressure (B.P.) reduction ([1]; 5 mg/kg oral, at 1.5 hours) [mmHg] | blood pressure (B.P.) reduction ([1]; 5 mg/kg oral, at 4 hours) [mmHg] | blood pressure (B.P.) reduction ([1]; 10 mg/kg oral, at 1.5 hours) [mmHg] | blood pressure (B.P.) reduction ([1]; 10 mg/kg oral, at 4 hours) [mmHg] | blood pressure (B.P.) reduction ([1]; 25 mg/kg oral, at 1.5 hours) [mmHg] | blood pressure (B.P.) reduction ([1]; 50 mg/kg oral, at 1.5 hours) [mmHg] | blood pressure (B.P.) reduction ([1]; 50 mg/kg oral, at 4 hours) [mmHg] | blood pressure (B.P.) reduction ([1]; 25 mg/kg oral, at 4 hours) [mmHg]
COC(=O)C1=C(C)NC2=C(C(=O)CNC2)C1c1c(F)c(F)c(F)c(F)c1F (centres unmarked) [Example 3, 1,4,5,6,7,8-Hexahydro-2-methyl-5-oxo-4-(2,3,4,5,6-pentafluorophenyl)-1,7-naphthyridine-3-carboxylic Acid Methyl Ester] | 78.7 | 65.2 | -34 | -30 | -48 | -36 | -79 | -24 | -76 | -64 | -88 | –
COC(=O)C1=C(C)NC2=C(C(=O)CN(C)C2)C1c1c(F)c(F)c(F)c(F)c1F (centres unmarked) [Example 1, 1,4,5,6,7,8-Hexahydro-2,7-dimethyl-4-[2,3,4,5,6-pentafluorophenyl]-5-oxo-1,7-naphthyridine-3-carboxylic Acid Methyl Ester] | 22.9 | – | – | – | -21 | -10 | -63 | -31 | -71 | -95 | -89 | -49
COC(=O)C1=C(C)NC2=C(C(=O)CN(Cc3ccccc3)C2)C1c1c(F)c(F)c(F)c(F)c1F (centres unmarked) [Example 2, 1,4,5,6,7,8-Hexahydro-2-methyl-5-oxo-4-(2,3,4,5,6-pentafluorophenyl)-7-(phenylmethyl)-1,7-naphthyridine-3-carboxylic Acid Methyl Ester] | – | 56 | – | – | – | – | – | – | – | -20 | -23 | –
